According to patent US9018259B2, “Treatment of cancer using benzoic acid derivatives” (New York University, priority 2004, dated 2015):

Experiments:
B16F10 melanoma cells [1] = assay: Tumor cell proliferation, WST-1 tetrazolium salt cleavage; format: cell-based; details: 50 μg/ml test compound for 3 days, with or without 0.01 μM TAXOL for additional 48 hours; compared to untreated control; FIG. 3A
Protocol: (§1) Tumor cell proliferation was assessed by monitoring mitochondrial dehydrogenase activity as detected by tetrazolium salt cleavage using a commercially available kit (WST-1; Roche, Indianapolis, Ind.). Briefly, B16F10 melanoma cells, Lewis Lung carcinoma cells, and 4T1 breast carcinoma cells (1×10^6) were resuspended in PABA-free growth medium supplemented with 2.0% fetal bovine serum and 50 μg/ml of test compound (as shown in FIG. 1) Following incubation for 3 days, the cells were either treated or not treated with 0.01 μM TAXOL® (paclitaxel) and incubated for an additional 48 hours. Proliferation was measured; data points represent the mean optical density at 490 nm±SD from triplicate wells.

[2] = system: Lewis Lung carcinoma cells; assay: as above; format: cell-based; details: 50 μg/ml test compound for 3 days, with or without 0.01 μM TAXOL for additional 48 hours; compared to untreated control; FIG. 3B
Protocol: as §1

[3] = system: 4T1 breast carcinoma cells; assay: as above; format: cell-based; details: 50 μg/ml test compound for 3 days, with or without 0.01 μM TAXOL for additional 48 hours; compared to untreated control; FIG. 3C
Protocol: as §1

[4] = system: tyrosinase (from mushrooms); assay: Purified tyrosinase activity, formation of DOPAchrome from L-DOPA; format: biochemical; details: at 8.0 mM, up to 10 minutes; L-DOPA 8.0 mM, 800 U/ml tyrosinase; FIG. 2
Protocol: Activity of purified tyrosinase was measured by monitoring the formation of DOPAchrome. Briefly, a fixed concentration of L-DOPA (8.0 mM) was incubated with 800 U/ml tyrosinase (from mushrooms-Sigma, St. Louis, Mo.) in the absence or presence of increasing concentrations of PABA, compound 44 (C-44) and compound 45 (C-45) (see FIG. 1 for structures) for indicated time points (see FIG. 2 for concentrations and time points). At each time point, 100 μl of the reaction mixture was measured. Data points represent the mean optical density at 475 nm±SD from triplicate wells.

B16F10 melanoma cells [5] = assay: In vivo tumor growth of B16F10 xenografts in nude mice; details: B16F10 s.c. xenograft, daily intraperitoneal injection for 15 days, TAXOL 0.5 μM, C-45 100 μg, FIG. 4
Protocol: In addition, tumor growth in vivo of xenografts of B16F10 melanoma cells in nude mice was determined. Briefly, subconfluent cultures of B16F10 cells were harvested, washed, and resuspended in sterile PBS. Female nude mice were injected subcutaneously with 1×10^6 cells per mouse and tumors were allowed to grow for 3 days. After 3 days, mice were either untreated or treated daily for 15 days by intraperitoneal injection of TAXOL® (paclitaxel) (0.5 μM), C-45 (100 μg), or a combination of TAXOL® (paclitaxel) and C-45. Tumor growth was determined weekly by caliper measurements. After 15 days, the mice were sacrificed and tumor volume was determined by standard methods using the formula […], where V=volume, L=length, and W=width.

B16F10 melanoma cells [6] = assay: Chick embryo tumor growth model; format: in vivo, chick embryos; details: B16F10 cells cultured with 50 μg/ml C-45 at least 7 days before implantation; for growth of B16F10 tumors in chick embryos, with or without TAXOL: TAXOL 0.01 μM, FIG. 5B
Protocol: The chick embryo tumor growth model was used to determine whether C-45 enhances the ability of TAXOL® (paclitaxel) or ionizing radiation to inhibit tumor growth. Briefly, B16F10 melanoma cells were cultured in growth medium in the presence or absence of 50 μg/ml C-45 for at least 7 days. Following harvesting and washing, about 2×10^5 tumor cells were implanted onto the chorioallontoic membranes of 10 day-old chick embryos and incubated for at least 24 hours. Following incubation, the embryos were treated with either a single fractionated dose of radiation (5.0 Gy) or TAXOL® (paclitaxel) (0.01 μM) and incubated for an additional 7 days. The embryos were sacrificed and tumors were resected and weighed (5-10 embryos per condition).

BRCA-2 = BRCA-2 protein expression in G361 melanoma cells treated with PABA; format: cell-based; details: G361 human melanoma cells treated with PABA; data not shown
Source text: (§2) To determine whether tumor cells abnormally express and signal through the PXR/SXR receptor compared to their non-transformed counterparts, and thus, candidates for treatment with PXR/SXR agonists, immortalized, non-transformed cells and sub-confluent transformed, tumorigenic cells will be cultured in the presence or absence of various concentrations of a known PXR/SXR activator, e.g., benzoic acid derivatives, and a negative control, e.g., streptomycin, for a pre-determined time e.g., 5 days. Cell lyses will be achieved as described above. Following lyses, about 15 μg/lane of protein will be loaded and separated by 10% SDS-PAGE, followed by transfer to nitrocellulose membranes. Membranes will then incubated in the presence of e.g., monoclonal antibody 39048, specific for the PXR/SXR nuclear receptor, followed by washing and labeling with a peroxidase-labeled secondary antibody.
(§3) Similarly, to evaluate expression of cell cycle proteins that may be regulated by PXR/SXR activation in response to drug treatment, membranes as prepared above will be incubated with commercially available monoclonal antibodies such as PC410 (Chemicon, Temecula, Calif.), directed against β-integrin, as a positive control, monoclonal antibody 3303, specific for BRCA-2 (QED Biosciences, San Diego, Calif.), and with monoclonal antibody AB-3, directed against CDC25A (NeoMakers Inc). […]

PXR/SXR receptor = target: T1, PXR/SXR receptor (Homo sapiens, UniProt O75469); details: Moore et al., Mol. Endocrinol. 2002; 16: 977-986; cited from earlier work
T1 sequence (O75469 1-434): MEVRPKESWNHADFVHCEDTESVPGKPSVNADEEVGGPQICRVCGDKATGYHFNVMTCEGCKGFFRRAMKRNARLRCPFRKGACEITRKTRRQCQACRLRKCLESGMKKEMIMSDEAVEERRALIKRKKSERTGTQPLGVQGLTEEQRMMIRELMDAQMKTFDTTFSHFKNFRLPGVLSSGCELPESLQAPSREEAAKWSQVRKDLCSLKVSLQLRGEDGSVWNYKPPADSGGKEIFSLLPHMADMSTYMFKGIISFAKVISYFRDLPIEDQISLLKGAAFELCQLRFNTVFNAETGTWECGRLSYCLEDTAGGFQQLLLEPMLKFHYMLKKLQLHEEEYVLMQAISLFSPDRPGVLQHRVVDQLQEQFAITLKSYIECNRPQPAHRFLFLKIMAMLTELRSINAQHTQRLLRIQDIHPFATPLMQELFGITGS

CDC25A = CDC25A protein expression in G361 melanoma cells treated with PABA; format: cell-based; details: G361 human melanoma cells treated with PABA; data not shown
Source text: as §2, §3

| SMILES | in vitro proliferation of B16F10 cells (optical density at 490 nm) (B16F10 melanoma cells [1]) | in vitro proliferation of Lewis Lung carcinoma cells (optical density at 490 nm) [2] | in vitro proliferation of 4T1 breast carcinoma cells (optical density at 490 nm) [3] | inhibition of tyrosinase activity (DOPAchrome formation, optical density at 475 nm) [4] | in vivo tumor growth (tumor volume) compared to untreated controls (B16F10 melanoma cells [5]) | growth of B16F10 tumors in chick embryos, with or without TAXOL (B16F10 melanoma cells [6]) | tumor weight / tumor growth in chick embryos, with or without radiation (B16F10 melanoma cells [6]; single dose of radiation 5.0 Gy, FIG. 5A) | protein expression of DNA repair protein BRCA-2 (BRCA-2) | binding and activation of the PXR/SXR receptor (PXR/SXR receptor) | expression of cell-cycle progression checkpoint protein CDC25A (CDC25A) |
| --- | --- | --- | --- | --- | --- | --- | --- | --- | --- | --- |
| C=CCNc1ccc(C(=O)O)cc1 [C-45] | inhibited in vitro proliferation | inhibited in vitro proliferation | inhibited in vitro proliferation | inhibited tyrosinase activity | neither TAXOL® (paclitaxel) nor C-45 inhibited in vivo tumor growth | inhibited the growth of the B16F10 tumors significantly | reduced tumor weight significantly |  |  |  |
| Nc1ccc(C(=O)O)cc1 [PABA, para-amino-benzoic acid] |  |  |  | inhibited tyrosinase activity |  |  |  | decreased protein expression of DNA repair protein BRCA-2 | bind and activate the PXR/SXR receptor | increase expression of cell-cycle progression checkpoint protein CDC25A |
| CC(=O)O[C@H]1C(=O)[C@@]2(C)[C@H]([C@H](OC(=O)c3ccccc3)[C@]3(O)C[C@H](OC(=O)[C@H](O)[C@@H](NC(=O)c4ccccc4)c4ccccc4)C(C)=C1C3(C)C)[C@]1(OC(C)=O)CO[C@@H]1C[C@@H]2O [TAXOL® (paclitaxel), paclitaxel] | inhibited in vitro proliferation | inhibited in vitro proliferation | inhibited in vitro proliferation |  | neither TAXOL® (paclitaxel) nor C-45 inhibited in vivo tumor growth | inhibited the growth of the B16F10 tumors significantly |  |  |  |  |
